From patent publication US7960409B2, “Pharmaceutical phenylquinoline and chromen-2-one triazole compounds” (Merck Sharp & Dohme Corp., priority 2007, dated 2011)

Biological target: T1, recombinant human 5-lipoxygenase (Homo sapiens, UniProt P09917)
T1 construct: made in house; host or cells: Sf9 cells infected with recombinant baculovirus rvH5LO (8-1)
T1 sequence (P09917 1-674): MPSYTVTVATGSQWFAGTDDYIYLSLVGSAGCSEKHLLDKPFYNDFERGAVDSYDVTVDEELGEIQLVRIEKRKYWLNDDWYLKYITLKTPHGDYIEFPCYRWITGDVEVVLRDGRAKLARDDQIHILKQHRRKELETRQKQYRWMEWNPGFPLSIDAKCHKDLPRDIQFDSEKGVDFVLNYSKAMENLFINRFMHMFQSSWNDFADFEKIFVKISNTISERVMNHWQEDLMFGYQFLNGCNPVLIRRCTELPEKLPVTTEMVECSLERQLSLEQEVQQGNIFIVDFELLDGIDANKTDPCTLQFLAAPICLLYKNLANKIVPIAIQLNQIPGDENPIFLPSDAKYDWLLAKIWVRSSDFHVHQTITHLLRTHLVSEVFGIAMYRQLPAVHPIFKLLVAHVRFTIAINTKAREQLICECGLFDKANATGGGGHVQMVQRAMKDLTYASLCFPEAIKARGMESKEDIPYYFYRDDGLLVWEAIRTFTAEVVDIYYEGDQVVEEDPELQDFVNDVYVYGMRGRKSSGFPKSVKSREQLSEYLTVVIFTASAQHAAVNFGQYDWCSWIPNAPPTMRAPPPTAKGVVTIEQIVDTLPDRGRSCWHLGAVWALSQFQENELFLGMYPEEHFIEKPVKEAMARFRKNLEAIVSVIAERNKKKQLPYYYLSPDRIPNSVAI
Assay: Human 5-Lipoxygenase Enzyme Assay
Format: biochemical
Conditions: spectrophotometric assay, purified recombinant human 5-lipoxygenase, 20 μM arachidonic acid
Protocol: Compounds of this invention can be tested using the following assays to determine their mammalian leukotriene biosynthesis inhibiting activity.
Human 5-Lipoxygenase Enzyme Assay
The activity of 5-lipoxygenase was measured using a spectrophotometric assay and recombinant human 5-lipoxygenase as a source of enzyme. Human 5-lipoxygenase was purified from Sf9 cells infected with the recombinant baculovirus rvH5LO (8-1) containing the coding sequence for human 5-lipoxygenase as described by Percival et al., (Eur. J. Biochem 210, 109-117, 1992). The enzymatic activity was measured using a spectrophotometric assay from the optimal rate of conjugated diene formation (absorbance at 238 nm) using the procedure described in Riendeau et al. (Biochem. Pharmacol. 38, 2313-2321, 1989) with minor modifications. The incubation mixture contained 25 mM potassium phosphate, pH 7.5, 0.1 mM EDTA, 0.3 mM CaCl2, 24 μg/ml phosphatidylcholine, 0.1 mM ATP, 0.5 mM DTT, 20 μM arachidonic acid (2 μl from a 100-fold solution in ethanol), inhibitor (2 μl aliquot from a 100-fold solution in DMSO) and an aliquot of purified 5-lipoxygenase. Reactions were initiated by the addition of the purified 5-lipoxygenase and the rate of conjugated diene production was followed for 5 minutes at room temperature. The reaction was performed in a Costar UV plate (Cat. # 3635) and the absorbance changes at 238 nm were recorded with a Molecular Devices UV/VIS 96 well spectrophotometer (Spectra Max 190) using SOFTmax PRO software. Enzymatic activity was calculated from the optimal rate of the reaction by a linear fit of the increase in absorbance at 238 nm over 36 seconds. When the rate of diene formation is low (<0.01 Absorbance Unit/min) the linear fit is performed over 180 seconds.

Structure (SMILES) | IC50 [nM]
N#Cc1cc(-c2ccc(F)cc2)c2ccc(Cn3cc(C(O)(C4CC4)C4CC4)nn3)cc2n1 [Example 46, 7-({4-[dicyclopropyl(hydroxy)methyl]-1H-1,2,3-triazol-1-yl}methyl)-4-(4-fluorophenyl)quinoline-2-carbonitrile] | 103
O=c1cc(-c2ccc(F)cc2)c2ccc(Cn3cc(C(O)(C4CC4)C4CC4)nn3)cc2o1 [Example 26, 7-[4-(Dicyclopropyl-hydroxy-methyl)-[1,2,3]triazol-1-ylmethyl]-4-(4-fluoro-phenyl)-chromen-2-one] | 98
CC[C@](O)(c1cn(Cc2ccc3c(-c4cc(Cl)cc(Cl)c4)cc(C#N)nc3c2)nn1)C(F)(F)F [Example 57, (S)-4-(3,5-dichlorophenyl)-7-({4-[1-hydroxy-1-(trifluoromethyl)propyl]-1H-1,2,3-triazol-1-yl}methyl)quinoline-2-carbonitrile] | 86
CCC(O)(c1nnn(Cc2ccc3c(-c4cccc(F)c4)cc(=O)oc3c2)c1C)C(F)(F)F (stereo not drawn) [Example 27, 4-(3-fluorophenyl)-7-{[4-(1-hydroxy-1-(trifluoromethyl)propyl)-5-methyl-1H-1,2,3-triazol-1-yl}methyl]-2H-chromen-2-one] | 298
O=c1cc(-c2cccc(F)c2)c2ccc(Cn3cc(Cc4ccccc4)nn3)cc2o1 [Example 22, 7-[(4-benzyl-1H-1,2,3-triazol-1-yl)methyl]-4-(3-fluorophenyl)-2H-chromen-2-one] | 951
CCC(O)(CC)c1cn(Cc2ccc3c(-c4ccc(F)cc4)cc(=O)oc3c2)nn1 [Example 16, 7-[4-(1-Ethyl-1-hydroxy-propyl)-[1,2,3]triazol-1-ylmethyl]-4-(4-fluoro-phenyl)-chromen-2-one] | 442
CC[C@](O)(c1cn(Cc2ccc3c(-c4ccccc4F)cc(=O)oc3c2)nn1)C(F)(F)F [Example 3, (S)-4-(2-Fluoro-phenyl)-7-[4-(1-hydroxy-1-trifluoromethyl-propyl)-[1,2,3]triazol-1-ylmethyl]-chromen-2-one] | 1210
CCC(O)(CC)c1cn(Cc2ccc3c(-c4ccccc4)cc(C#N)nc3c2)nn1 [Example 43, 7-{[4-(1-ethyl-1-hydroxypropyl)-1H-1,2,3-triazol-1-yl]methyl}-4-phenylquinoline-2-carbonitrile] | 275
CCC(O)(CC)c1cn(Cc2ccc3c(-c4cccc(F)c4)cc(=O)oc3c2)nn1 [Example 12, 7-[4-(1-Ethyl-1-hydroxy-propyl)-[1,2,3]triazol-1-ylmethyl]-4-(3-fluoro-phenyl)-chromen-2-one] | 324
N#Cc1cc(-c2ccccc2)c2ccc(Cn3cc(C(O)(C4CC4)C4CC4)nn3)cc2n1 [Example 48, 7-({4-[dicyclopropyl(hydroxy)methyl]-1H-1,2,3-triazol-1-yl}methyl)-4-phenylquinoline-2-carbonitrile] | 82
CC[C@](O)(c1cn(Cc2ccc3c(-c4coc(C)n4)cc(=O)oc3c2)nn1)C(F)(F)F [Example 37, (S)-7-({4-[1-hydroxy-1-(trifluoromethyl)propyl]-1H-1,2,3-triazol-1-yl}methyl)-4-(2-methyl-1,3-oxazol-4-yl)-2H-chromen-2-one] | 351

These reach a lower IC50. Values come first.

IC50 [nM] | Structure (SMILES)
50 | CC[C@](O)(c1cn(Cc2ccc3c(-c4ccsc4)cc(=O)oc3c2)nn1)C(F)(F)F [Example 8, (S)-7-[4-(1-Hydroxy-1-trifluoromethyl-propyl)-[1,2,3]triazol-1-ylmethyl]-4-thiophen-3-yl-chromen-2-one]
45 | CC[C@](O)(c1cn(Cc2ccc3c(-c4ccccc4)cc(=O)oc3c2)nn1)C(F)(F)F [Example 5, (S)-7-[4-(1-Hydroxy-1-trifluoromethyl-propyl)-[1,2,3]triazol-1-ylmethyl]-4-phenyl-chromen-2-one]
50 | CC[C@](O)(c1cn(Cc2ccc3c(-c4ccc(F)cc4)cc(=O)oc3c2)nn1)C(F)(F)F [Example 2, (S)-4-(4-Fluorophenyl)-7-[4-(1-hydroxy-1-trifluoromethyl-propyl)-[1,2,3]triazol-1-ylmethyl]-chromen-2-one]
34 | CC[C@](O)(c1cn(Cc2ccc3c(-c4ccccc4)cc(C#N)nc3c2)nn1)C(F)(F)F [Example 39, (S)-7-({4-[1-hydroxy-1-(trifluoromethyl)propyl]-1H-1,2,3-triazol-1-yl}methyl)-4-phenylquinoline-2-carbonitrile]
62 | N#Cc1cc(-c2cccc(F)c2)c2ccc(Cn3cc(C(O)(C4CC4)C4CC4)nn3)cc2n1 [Example 47, 7-({4-[dicyclopropyl(hydroxy)methyl]-1H-1,2,3-triazol-1-yl}methyl)-4-(3-fluorophenyl)-quinoline-2-carbonitrile]
17 | CC[C@](O)(c1cn(Cc2ccc3c(-c4ccc(F)cc4)cc(N(C)C)nc3c2)nn1)C(F)(F)F [Example 87, (S)-2-(1-{[2-(dimethylamino)-4-(4-fluorophenyl)quinolin-7-yl]methyl}-1H-1,2,3-triazol-4-yl)-1,1,1-trifluorobutan-2-ol]
51 | CC[C@](O)(c1cn(Cc2ccc3c(-c4ccc(F)cc4)cc(C#N)nc3c2)nn1)C(F)(F)F [Example 41, (S)-4-(4-fluorophenyl)-7-({4-[1-hydroxy-1-(trifluoromethyl)propyl]-1H-1,2,3-triazol-1-yl}methyl)quinoline-2-carbonitrile]
52 | CC[C@](O)(c1cn(Cc2ccc3c(-c4cc(F)cc(F)c4)cc(C#N)nc3c2)nn1)C(F)(F)F [Example 58, (S)-4-(3,5-difluorophenyl)-7-({4-[1-hydroxy-1-(trifluoromethyl)propyl]-1H-1,2,3-triazol-1-yl}methyl)quinoline-2-carbonitrile]
37 | CCCC(O)(c1cn(Cc2ccc3c(-c4cccc(F)c4)cc(=O)oc3c2)nn1)C(F)(F)F (stereo not drawn) [Example 30, 4-(3-Fluorophenyl)-7-({4-[1-hydroxy-1-(trifluoromethyl)butyl]-1H-1,2,3-triazol-1-yl}methyl)-2H-chromen-2-one]
38 | CC[C@](O)(c1cn(Cc2ccc3c(-c4cccc(F)c4)cc(=O)oc3c2)nn1)C(F)(F)F [Example 1, (S)-4-(3-fluorophenyl)-7-({4-[1-hydroxy-1-(trifluoromethyl)propyl]-1H-1,2,3-triazol-1-yl}methyl)-2H-chromen-2-one]
41 | CC[C@](O)(c1cn(Cc2ccc3c(-c4ccc(F)cc4)cc(OC)nc3c2)nn1)C(F)(F)F [Example 88, (S)-1,1-trifluoro-2-(1-{[4-(4-fluorophenyl)-2-methoxyquinolin-7-yl]methyl}-1H-1,2,3-triazol-4-yl)butan-2-ol]
54 | CC[C@](O)(c1cn(Cc2ccc3c(-c4cccc(F)c4)cc(C#N)nc3c2)nn1)C(F)(F)F [Example 40, (S)-4-(3-fluorophenyl)-7-({4-[1-hydroxy-1-(trifluoromethyl)propyl]-1H-1,2,3-triazol-1-yl}methyl)quinoline-2-carbonitrile]
35 | CC[C@](O)(c1cn(Cc2ccc3c(-c4ccccc4)cc(C(N)=O)nc3c2)nn1)C(F)(F)F [Example 69, (S)-7-({4-[1-hydroxy-1-(trifluoromethyl)propyl]-1H-1,2,3-triazol-1-yl}methyl)-4-phenylquinoline-2-carboxamide]
